Each compound was assayed against T1, Gal4-HNF4α (human HNF4α LBD) (Homo sapiens, UniProt P41235) (assay: Hybrid Gal4-HNF4α reporter gene assay in transiently transfected HEK293T cells). Conditions: not given.
T1 construct: uniprot entry: P41235-1, residues 142-377; expressed in transfected cells; host or cells: HEK293T
T1 sequence (P41235 142-377): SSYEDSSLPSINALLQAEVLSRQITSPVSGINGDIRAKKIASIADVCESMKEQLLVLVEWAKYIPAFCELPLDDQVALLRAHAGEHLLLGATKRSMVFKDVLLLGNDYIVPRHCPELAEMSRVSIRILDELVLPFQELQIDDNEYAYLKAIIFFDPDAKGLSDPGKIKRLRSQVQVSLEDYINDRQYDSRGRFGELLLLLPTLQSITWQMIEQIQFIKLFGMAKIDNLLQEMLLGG
Format: cell-based
With `c1ccc2c3c([nH]c2c1)CCCC3` [Prestw-Frag-2780, C1CCc2c(C1)[nH]c1ccccc21] the “HNF4a-screening_activity_(mean_of_n=2)” value was 0.7267.
`CCOc1ccccc1OCC1CNCCO1` (centres unmarked) [Prestw-Frag-2992, CCOc1ccccc1OCC1CNCCO1] was tested, and the “HNF4a-screening_activity_(mean_of_n=2)” value was 0.7878.

Same assay, conditions: Table S1, primary screening, 50 µM
`O=c1ccn([C@@H]2C[C@H](O)[C@@H](CO)O2)c(=O)[nH]1` [Prestw-Frag-2769, OC[C@H]1O[C@@H](C[C@@H]1O)n1ccc(=O)[nH]c1=O] was tested, and the “HNF4a-screening_activity_(mean_of_n=2)” value was 0.8958.
For `CCN(CC)CCOC(=O)C1(c2ccccc2)CCCC1` [Prestw-Frag-2774, CCN(CC)CCOC(=O)C1(CCCC1)c1ccccc1], the “HNF4a-screening_activity_(mean_of_n=2)” value was 1.226.
`c1cc2c(cc1OC[C@H]1CCCNC1)OCO2` [Prestw-Frag-2789, C(Oc1ccc2OCOc2c1)[C@H]1CCCNC1] was tested, and the “HNF4a-screening_activity_(mean_of_n=2)” value was 1.15.
`CCNC(=O)c1cccnc1` [Prestw-Frag-2794, CCNC(=O)c1cccnc1] was tested, and the “HNF4a-screening_activity_(mean_of_n=2)” value was 1.068.
With `COC(=O)c1c[nH]c2ccccc12` [Prestw-Frag-2799, COC(=O)c1c[nH]c2ccccc12] the “HNF4a-screening_activity_(mean_of_n=2)” value was 0.9379.
For `OC1CCN(c2ccccc2F)CC1` [Prestw-Frag-2803, OC1CCN(CC1)c1ccccc1F], the “HNF4a-screening_activity_(mean_of_n=2)” value was 1.103.
With `Cc1ccccc1Nc1ncccc1C(=O)O` [Prestw-Frag-2806, Cc1ccccc1Nc1ncccc1C(O)=O] the “HNF4a-screening_activity_(mean_of_n=2)” value was 1.238.
For `O=C(O)c1cccnc1Nc1cccc(Cl)c1` [Prestw-Frag-2807, OC(=O)c1cccnc1Nc1cccc(Cl)c1], the “HNF4a-screening_activity_(mean_of_n=2)” value was 1.808.
`NCCCOc1cccc(CN2CCCCC2)c1` [Prestw-Frag-2808, NCCCOc1cccc(CN2CCCCC2)c1] was tested, and the “HNF4a-screening_activity_(mean_of_n=2)” value was 1.297.
For `Oc1cccc(CN2CCCCC2)c1` [Prestw-Frag-2809, Oc1cccc(CN2CCCCC2)c1], the “HNF4a-screening_activity_(mean_of_n=2)” value was 1.12.
In the case of `CCNC(=O)c1ccc(Cl)cc1` [Prestw-Frag-2818, CCNC(=O)c1ccc(Cl)cc1], the “HNF4a-screening_activity_(mean_of_n=2)” value is reported as 0.8348.
For `Nc1cccc(O)c1` [Prestw-Frag-2826, Nc1cccc(O)c1], the “HNF4a-screening_activity_(mean_of_n=2)” value was 1.072.
`C[C@@H](O)c1cc(C(F)(F)F)cc(C(F)(F)F)c1` [Prestw-Frag-2849, C[C@@H](O)c1cc(cc(c1)C(F)(F)F)C(F)(F)F] was tested, and the “HNF4a-screening_activity_(mean_of_n=2)” value was 1.171.
In the case of `Clc1cccc(N2CCNCC2)c1Cl` [Prestw-Frag-2853, Clc1cccc(N2CCNCC2)c1Cl], the “HNF4a-screening_activity_(mean_of_n=2)” value is reported as 1.239.
With `O=C1CCc2ccc(O)cc2N1` [Prestw-Frag-2854, Oc1ccc2CCC(=O)Nc2c1] the “HNF4a-screening_activity_(mean_of_n=2)” value was 1.013.
For `c1ccc(C(c2ccccc2)n2ccnc2)cc1` [Prestw-Frag-2868, c1cn(cn1)C(c1ccccc1)c1ccccc1], the “HNF4a-screening_activity_(mean_of_n=2)” value was 0.7887.
`c1ccc(-c2nnn[nH]2)cc1` [Prestw-Frag-2887, c1ccc(cc1)-c1nnn[nH]1] was tested, and the “HNF4a-screening_activity_(mean_of_n=2)” value was 0.9719.
In the case of `Oc1cc(Cl)c(Cl)cc1Cl` [Prestw-Frag-2898, Oc1cc(Cl)c(Cl)cc1Cl], the “HNF4a-screening_activity_(mean_of_n=2)” value is reported as 5.433.
With `O=C(c1ccccc1)c1ccc(Br)cc1` [Prestw-Frag-2912, Brc1ccc(cc1)C(=O)c1ccccc1] the “HNF4a-screening_activity_(mean_of_n=2)” value was 0.975.
With `NCCCCN1CCN(c2ncccn2)CC1` [Prestw-Frag-2921, NCCCCN1CCN(CC1)c1ncccn1] the “HNF4a-screening_activity_(mean_of_n=2)” value was 1.125.
`Nc1cccc(Nc2ncccn2)c1` [Prestw-Frag-2935, Nc1cccc(Nc2ncccn2)c1] was tested, and the “HNF4a-screening_activity_(mean_of_n=2)” value was 1.004.
In the case of `CC(C)(C)OC(=O)/C=C/c1ccccc1` [Prestw-Frag-2947, CC(C)(C)OC(=O)\C=C\c1ccccc1], the “HNF4a-screening_activity_(mean_of_n=2)” value is reported as 1.247.
For `c1ccc(C2CNCCO2)cc1` (centres unmarked) [Prestw-Frag-2958, C1COC(CN1)c1ccccc1], the “HNF4a-screening_activity_(mean_of_n=2)” value was 1.039.
For `COc1ccc(CC(=O)O)cc1` [Prestw-Frag-2960, COc1ccc(CC(O)=O)cc1], the “HNF4a-screening_activity_(mean_of_n=2)” value was 0.9108.
For `CCc1ccc(CCO)nc1` [Prestw-Frag-2968, CCc1ccc(CCO)nc1], the “HNF4a-screening_activity_(mean_of_n=2)” value was 1.216.
For `Nc1nc2c(s1)CCCC2` [Prestw-Frag-2972, Nc1nc2CCCCc2s1], the “HNF4a-screening_activity_(mean_of_n=2)” value was 1.123.
With `CCOc1ccccc1O` [Prestw-Frag-2995, CCOc1ccccc1O] the “HNF4a-screening_activity_(mean_of_n=2)” value was 0.8201.
For `c1ccc(-n2ccc3ccccc32)cc1` [Prestw-Frag-3011, c1cc2ccccc2n1-c1ccccc1], the “HNF4a-screening_activity_(mean_of_n=2)” value was 0.7452.
With `CN1CCN(S(=O)(=O)c2ccccc2)CC1` [Prestw-Frag-3012, CN1CCN(CC1)S(=O)(=O)c1ccccc1] the “HNF4a-screening_activity_(mean_of_n=2)” value was 0.8018.
`CNS(=O)(=O)Cc1ccc2[nH]cc(CCN)c2c1` [Prestw-Frag-3017, CNS(=O)(=O)Cc1ccc2[nH]cc(CCN)c2c1] was tested, and the “HNF4a-screening_activity_(mean_of_n=2)” value was 0.7522.
For `c1ccc2nccnc2c1` [Prestw-Frag-3033, c1ccc2nccnc2c1], the “HNF4a-screening_activity_(mean_of_n=2)” value was 0.9657.
With `O=C1c2nccnc2C(O)N1c1ccc(Cl)cn1` (centres unmarked) [Prestw-Frag-3046, OC1N(C(=O)c2nccnc12)c1ccc(Cl)cn1] the “HNF4a-screening_activity_(mean_of_n=2)” value was 0.8017.
For `Cc1ccc(N)c(C#N)c1` [Prestw-Frag-3060, Cc1ccc(N)c(c1)C#N], the “HNF4a-screening_activity_(mean_of_n=2)” value was 0.8715.
For `OCCc1ccc(Cl)cc1` [Prestw-Frag-3062, OCCc1ccc(Cl)cc1], the “HNF4a-screening_activity_(mean_of_n=2)” value was 0.9659.
`O=C1c2ccc(Cl)cc2CCc2cccnc21` [Prestw-Frag-3073, Clc1ccc2c(CCc3cccnc3C2=O)c1] was tested, and the “HNF4a-screening_activity_(mean_of_n=2)” value was 0.9858.
With `CCN(CC)C(=O)/C=C/c1ccccc1` [Prestw-Frag-3088, CCN(CC)C(=O)\C=C\c1ccccc1] the “HNF4a-screening_activity_(mean_of_n=2)” value was 0.9663.
In the case of `O=C(O)/C=C/c1cnc[nH]1` [Prestw-Frag-3090, OC(=O)\C=C\c1cnc[nH]1], the “HNF4a-screening_activity_(mean_of_n=2)” value is reported as 1.054.
For `OCc1ccc(F)cc1F` [Prestw-Frag-3100, OCc1ccc(F)cc1F], the “HNF4a-screening_activity_(mean_of_n=2)” value was 0.9757.
In the case of `OCCn1cncn1` [Prestw-Frag-3101, OCCn1cncn1], the “HNF4a-screening_activity_(mean_of_n=2)” value is reported as 0.9898.
For `CCCCc1nc(Cl)c(CO)[nH]1` [Prestw-Frag-3114, CCCCc1nc(Cl)c(CO)[nH]1], the “HNF4a-screening_activity_(mean_of_n=2)” value was 0.9053.
In the case of `CCN(CC)CCNC(=O)c1ccc(N)c(Cl)c1` [Prestw-Frag-3120, CCN(CC)CCNC(=O)c1ccc(N)c(Cl)c1], the “HNF4a-screening_activity_(mean_of_n=2)” value is reported as 1.18.
For `c1ccc2c(c1)CCCN2` [Prestw-Frag-3137, C1CNc2ccccc2C1], the “HNF4a-screening_activity_(mean_of_n=2)” value was 0.9914.
In the case of `Fc1cccnc1N1CCCC1` [Prestw-Frag-3150, Fc1cccnc1N1CCCC1], the “HNF4a-screening_activity_(mean_of_n=2)” value is reported as 1.041.
With `COc1ccc2c(c1)CCCC2` [Prestw-Frag-3188, COc1ccc2CCCCc2c1] the “HNF4a-screening_activity_(mean_of_n=2)” value was 0.8877.
With `Nc1nc(N)nc(-c2ccccc2)n1` [Prestw-Frag-3190, Nc1nc(N)nc(n1)-c1ccccc1] the “HNF4a-screening_activity_(mean_of_n=2)” value was 0.8184.
`O=C(Cc1ccccc1F)C1CC1` [Prestw-Frag-3198, Fc1ccccc1CC(=O)C1CC1] was tested, and the “HNF4a-screening_activity_(mean_of_n=2)” value was 1.083.
`Cc1ccccc1C(=O)Nc1ccccc1` [Prestw-Frag-3202, Cc1ccccc1C(=O)Nc1ccccc1] was tested, and the “HNF4a-screening_activity_(mean_of_n=2)” value was 1.357.
`Oc1ccccc1OCC(F)(F)F` [Prestw-Frag-3225, Oc1ccccc1OCC(F)(F)F] was tested, and the “HNF4a-screening_activity_(mean_of_n=2)” value was 1.152.
`Cc1cn(-c2cc(N)cc(C(F)(F)F)c2)cn1` [Prestw-Frag-3241, Cc1cn(cn1)-c1cc(N)cc(c1)C(F)(F)F] was tested, and the “HNF4a-screening_activity_(mean_of_n=2)” value was 1.061.
`Cc1cc(C)nc(O)n1` [Prestw-Frag-3247, Cc1cc(C)nc(O)n1] was tested, and the “HNF4a-screening_activity_(mean_of_n=2)” value was 1.288.
For `O=C(O)CC(c1ccccc1)c1ccccc1` [Prestw-Frag-3250, OC(=O)CC(c1ccccc1)c1ccccc1], the “HNF4a-screening_activity_(mean_of_n=2)” value was 1.055.
For `FC(F)(F)c1nnc2n1CCNC2` [Prestw-Frag-3253, FC(F)(F)c1nnc2CNCCn12], the “HNF4a-screening_activity_(mean_of_n=2)” value was 1.371.
In the case of `c1ccc(N2CCN(c3ccccc3)CC2)cc1` [Prestw-Frag-3257, C1CN(CCN1c1ccccc1)c1ccccc1], the “HNF4a-screening_activity_(mean_of_n=2)” value is reported as 1.063.
`CN1CCN(c2cc(N)ncn2)CC1` [Prestw-Frag-3262, CN1CCN(CC1)c1cc(N)ncn1] was tested, and the “HNF4a-screening_activity_(mean_of_n=2)” value was 1.186.
`Nc1ccn([C@H]2C[C@H](O)[C@@H](CO)O2)c(=O)n1` [Prestw-Frag-3264, Nc1ccn([C@H]2C[C@H](O)[C@@H](CO)O2)c(=O)n1] was tested, and the “HNF4a-screening_activity_(mean_of_n=2)” value was 1.086.
In the case of `COc1ccc(S(=O)(=O)N2CCNCC2)cc1` [Prestw-Frag-3313, COc1ccc(cc1)S(=O)(=O)N1CCNCC1], the “HNF4a-screening_activity_(mean_of_n=2)” value is reported as 1.073.
`CCOc1ccccc1C(=N)N` [Prestw-Frag-3314, CCOc1ccccc1C(N)=N] was tested, and the “HNF4a-screening_activity_(mean_of_n=2)” value was 1.051.
`Nc1ncc([N+](=O)[O-])s1` [Prestw-Frag-3324, Nc1ncc(s1)[N+]([O-])=O] was tested, and the “HNF4a-screening_activity_(mean_of_n=2)” value was 0.8744.
For `Nc1ncnc2c1ncn2CCO` [Prestw-Frag-3329, Nc1ncnc2n(CCO)cnc12], the “HNF4a-screening_activity_(mean_of_n=2)” value was 1.131.
`O=C(c1ccc(C(F)(F)F)cc1)C1CCCCC1` [Prestw-Frag-3334, FC(F)(F)c1ccc(cc1)C(=O)C1CCCCC1] was tested, and the “HNF4a-screening_activity_(mean_of_n=2)” value was 1.014.
`NC(=O)c1ccc2[nH]ccc2c1` [Prestw-Frag-3336, NC(=O)c1ccc2[nH]ccc2c1] was tested, and the “HNF4a-screening_activity_(mean_of_n=2)” value was 1.118.
For `Nc1ccc(CS(=O)(=O)N2CCCC2)cc1` [Prestw-Frag-3341, Nc1ccc(CS(=O)(=O)N2CCCC2)cc1], the “HNF4a-screening_activity_(mean_of_n=2)” value was 1.256.
With `COc1ccc(CC(C)N)cc1` (centres unmarked) [Prestw-Frag-3342, COc1ccc(CC(C)N)cc1] the “HNF4a-screening_activity_(mean_of_n=2)” value was 1.446.
`c1nc(NC2CC2)c2nc[nH]c2n1` [Prestw-Frag-3360, C1CC1Nc1ncnc2[nH]cnc12] was tested, and the “HNF4a-screening_activity_(mean_of_n=2)” value was 1.055.
With `CS(=O)(=O)NC(Cc1ccccc1)C(=O)O` (centres unmarked) [Prestw-Frag-3362, CS(=O)(=O)NC(Cc1ccccc1)C(O)=O] the “HNF4a-screening_activity_(mean_of_n=2)” value was 1.241.
`CNS(=O)(=O)CCc1ccccc1` [Prestw-Frag-3368, CNS(=O)(=O)CCc1ccccc1] was tested, and the “HNF4a-screening_activity_(mean_of_n=2)” value was 1.162.

Source: article PMC7660650, “Chemical Starting Matter for HNF4α Ligand Discovery and Chemogenomics” (International Journal of Molecular Sciences, 2020)
